Publication PMC6792352, “Limited Chemical Structural Diversity Found to Modulate Thyroid Hormone Receptor in the Tox21 Chemical Library” (Environmental Health Perspectives, 2019)
Counter-ions that a name gives are not always drawn.

Test: in vitro
Conditions: rat, gh3-tre-luc cells

Row | SMILES | CC50 at 24 h (AC50 (uM) modified / 1000) [µM] | also measured
1 | CCCCNc1ccc(C(=O)OCCN(C)C)cc1 [Tetracaine hydrochloride] | > 20 | 
2 | ClC1=C(Cl)C1(Cl)Cl [Tetrachlorocyclopropene] | > 90 | 
3 | ClC(Cl)=C(Cl)Cl [Tetrachloroethylene] |  | CC50 at 24 h (AC50 (uM) modified / 1000, Tox21_110001=Tox21_201196, viability, 1 nM T3 present, 24 h): > 90 µM
4 | O=C1OC(=O)c2c(Cl)c(Cl)c(Cl)c(Cl)c21 [Tetrachlorophthalic anhydride] | > 90 | 
5 | Clc1sc(Cl)c(Cl)c1Cl [Tetrachlorothiophene] | > 90 | 
6 | COP(=O)(OC)OC(=CCl)c1cc(Cl)c(Cl)cc1Cl [Tetrachlorovinphos] |  | CC50 at 24 h (AC50 (uM) modified / 1000, Tox21_110001=Tox21_200092, viability, 1 nM T3 present, 24 h): > 100 µM
7 | FC(F)C(F)(F)OCC(Cn1cncn1)c1ccc(Cl)cc1Cl (centres unmarked) [Tetraconazole] | > 90 | 
8 | FC1(F)C(F)(F)C(F)(F)C2(F)C(F)(C1(F)F)C(F)(F)C(F)(F)C1(F)C(F)(F)C(F)(F)C(F)(F)C(F)(F)C12F (centres unmarked) [Tetracosafluorotetradecahydrophenanthrene] | > 80 | 
9 | N#CC(C#N)=C(C#N)C#N [Tetracyanoethylene] | > 100 | 
10 | CN(C)[C@@H]1C(O)=C(C(N)=O)C(=O)[C@@]2(O)C(O)=C3C(=O)c4c(O)cccc4[C@@](C)(O)[C@H]3C[C@@H]12 [Tetracycline] | > 90 | 
11 | CCCCCCCCCCCCCC=O [Tetradecanal] | > 5 | 
12 | CCCCCCCCCCCCCC [Tetradecane] | > 90 | 
13 | CCCCCCCCCCCCCC(=O)OCC(O)CO (centres unmarked) [Tetradecanoic acid, 2,3-dihydroxypropyl ester] | > 90 | 
14 | CCCCCCCCCCCCCC(=O)O [Tetradecanoic acid] | > 90 | 
15 | CCCCCCCCCCCCCC[n+]1ccccc1 [Tetradecylpyridinium bromide] | 6.51 | 
16 | O=S(=O)(c1ccc(Cl)cc1)c1cc(Cl)c(Cl)cc1Cl [Tetradifon] | 60.5 | 
17 | CCOP(=O)(OCC)OP(=O)(OCC)OCC [Tetraethyl pyrophosphate] |  | CC50 at 24 h (AC50 (uM) modified / 1000, Tox21_110001=Tox21_301172, viability, 1 nM T3 present, 24 h): > 90 µM
18 | CC[N+](CC)(CC)CC [Tetraethylammonium chloride] | > 100 | 
19 | CCCCC(CC)C(=O)OCCOCCOCCOCCOC(=O)C(CC)CCCC (centres unmarked) [Tetraethylene glycol di(2-ethylhexanoate)] | > 90 | 
20 | C=C(C)C(=O)OCCOCCOCCOCCOC(=O)C(=C)C [Tetraethyleneglycol dimethacrylate] | > 90 | 
21 | NCCNCCNCCNCCN [Tetraethylenepentamine] | > 90 | 
22 | CCN(CC)C(=O)N(CC)CC [Tetraethylurea] | > 90 | 
23 | O=C1CCCCO1 [Tetrahydro-2H-pyran-2-one] | > 90 | 

Row | SMILES | CC50 at 24 h (AC50 (uM) modified / 1000) [µM] | also measured
24 | CCCCCc1cc(O)c2c(c1)OC(C)(C)[C@@H]1CCC(C)=C[C@@H]21 [Tetrahydrocannabinol] | 10.9 | 
25 | C1CCOC1 [Tetrahydrofuran] | > 100 | 
26 | C=CC(=O)OCC1CCCO1 (centres unmarked) [Tetrahydrofurfuryl acrylate] | > 90 | 
27 | OCC1CCCO1 (centres unmarked) [Tetrahydrofurfuryl alcohol] | > 90 | 
28 | C=C(C)C(=O)OCC1CCCO1 (centres unmarked) [Tetrahydrofurfuryl methacrylate] | > 90 | 
29 | O=C1OC(=O)C2CC=CCC12 (centres unmarked) [Tetrahydrophthalic anhydride] | > 90 | 
30 | c1ccc2c(c1)CCCC2C1=NCCN1 (centres unmarked) [Tetrahydrozoline hydrochloride] | > 50 | 
31 | IC(I)=C(I)I [Tetraiodoethene] | 8.53 | 
32 | CC(C)OP(=O)(CP(=O)(OC(C)C)OC(C)C)OC(C)C [Tetraisopropyl methylenediphosphonate] | > 90 | 
33 | OC[P+](CO)(CO)CO [Tetrakis(hydroxymethyl)phosphonium sulfate] |  | CC50 at 24 h (AC50 (uM) modified / 1000, Tox21_110001=Tox21_200928, viability, 1 nM T3 present, 24 h): > 90 µM
34 | c1ccc2c(c1)CCCC2 [Tetralin] | > 90 | 
35 | CC(C)=CC1C(C(=O)OCN2C(=O)C3=C(CCCC3)C2=O)C1(C)C (centres unmarked) [Tetramethrin] |  | CC50 at 24 h (AC50 (uM) modified / 1000, Tox21_110001=Tox21_112623, viability, 1 nM T3 present, 24 h): > 50 µM; CC50 at 24 h (AC50 (uM) modified / 1000, Tox21_110001=Tox21_301017, viability, 1 nM T3 present, 24 h): > 90 µM
36 | CO[Si](OC)(OC)OC [Tetramethyl orthosilicate] | 81.5 | 
37 | C[N+](C)(C)C [Tetramethylammonium chloride] |  | CC50 at 24 h (AC50 (uM) modified / 1000, Tox21_110001=Tox21_200660, viability, 1 nM T3 present, 24 h): > 90 µM
38 | Cc1nc(C)c(C)nc1C [Tetramethylpyrazine] | > 90 | 
39 | C[Si](C)(C)C [Tetramethylsilane] | > 90 | 
40 | CC(C)(C#N)C(C)(C)C#N [Tetramethylsuccinonitrile] |  | CC50 at 24 h (AC50 (uM) modified / 1000, Tox21_110001=Tox21_200573, viability, 1 nM T3 present, 24 h): > 90 µM
41 | CCCCCCCC[P+](CCCCCCCC)(CCCCCCCC)CCCCCCCC [Tetraoctylphosphonium bromide] | 4.22 | 
42 | CCCO[Si](OCCC)(OCCC)OCCC [Tetrapropyl orthosilicate] | > 90 | 
43 | Clc1ccc(Sc2cc(Cl)c(Cl)cc2Cl)cc1 [Tetrasul] | > 90 | 
44 | CNc1c2c(nn1C)CCCC2 [Tetridamine] | > 50 | 
45 | O=C1C(O)=C(O)C(=O)C(O)=C1O [Tetroquinone] | > 50 | 
46 | O=C1CCC(N2C(=O)c3ccccc3C2=O)C(=O)N1 (centres unmarked) [Thalidomide] | > 90 | 

Row | SMILES | CC50 at 24 h (AC50 (uM) modified / 1000) [µM] | also measured
47 | CC1(C)[C@@H]2CC[C@@]1(C)[C@H](OC(=O)CSC#N)C2 [Thanite] | > 50 | 
48 | CC1=CCCC(C)(C)C12CCC(C)O2 (centres unmarked) [Theaspirane] | > 90 | 
49 | COC1=CC=C2[C@H]3Cc4ccc(OC)c5c4[C@@]2(CCN3C)[C@H]1O5 [Thebaine] |  | CC50 at 24 h (AC50 (uM) modified / 1000, Tox21_110001=Tox21_111751, viability, 1 nM T3 present, 24 h): > 20 µM; CC50 at 24 h (AC50 (uM) modified / 1000, Tox21_110001=Tox21_112863, viability, 1 nM T3 present, 24 h): > 90 µM
50 | CN1CCC(N(Cc2cccs2)c2ccccc2)CC1 [Thenalidine] | 27 | 
51 | Cn1cnc2c1c(=O)[nH]c(=O)n2C [Theobromine] | > 40 | 
52 | Cn1c(=O)c2[nH]cnc2n(C)c1=O [Theophylline] | > 90 | 
53 | c1ccc2[nH]c(-c3cscn3)nc2c1 [Thiabendazole] | > 50 | 
54 | N#C/N=C1\SCCN1Cc1ccc(Cl)nc1 [Thiacloprid] | > 90 | 
55 | CN1COCN(Cc2cnc(Cl)s2)/C1=N/[N+](=O)[O-] [Thiamethoxam] | > 90 | 
56 | C/C(=C(\CCO)SS/C(CCO)=C(/C)N(C=O)Cc1cnc(C)nc1N)N(C=O)Cc1cnc(C)nc1N [Thiamine disulfide] | > 50 | 
57 | Cc1ncsc1CCO [Thiamine thiozole] | > 90 | 
58 | CS(=O)(=O)c1ccc([C@@H](O)[C@@H](COC(=O)CN)NC(=O)C(Cl)Cl)cc1 [Thiamphenicol glycinate hydrochloride] | > 50 | 
59 | C=CCC1(C(C)CCC)C(=O)N=C(S)NC1=O (centres unmarked) [Thiamylal sodium] |  | CC50 at 24 h (AC50 (uM) modified / 1000, Tox21_110001=Tox21_111517, viability, 1 nM T3 present, 24 h): > 50 µM
60 | COC(=O)c1c(C(F)F)nc(C(F)(F)F)c(C2=NCCS2)c1CC(C)C [Thiazopyr] |  | CC50 at 24 h (AC50 (uM) modified / 1000, Tox21_110001=Tox21_300822, viability, 1 nM T3 present, 24 h): > 90 µM
61 | O=C(Nc1ccccc1)Nc1cnns1 [Thidiazuron] |  | CC50 at 24 h (AC50 (uM) modified / 1000, Tox21_110001=Tox21_300651, viability, 1 nM T3 present, 24 h): > 90 µM
62 | CCSc1ccc2c(c1)N(CCCN1CCN(C)CC1)c1ccccc1S2 [Thiethylperazine malate] | > 20 | 
63 | COC(=O)c1sccc1S(=O)(=O)NC(=O)Nc1nc(C)nc(OC)n1 [Thifensulfuron-methyl] | > 90 | 
64 | CC(=N)S [Thioacetamide] | > 90 | 
65 | CCN(CC)C(=O)SCc1ccc(Cl)cc1 [Thiobencarb] | > 90 | 
66 | NNC(=S)NN [Thiocarbazide] | > 90 | 
67 | COc1c(O[C@@H]2O[C@H](CO)[C@@H](O)[C@H](O)[C@H]2O)cc2c(c1OC)-c1ccc(SC)c(=O)cc1[C@@H](NC(C)=O)CC2 [Thiocolchicoside] | > 20 | 
68 | CN(C)C1CSSSC1 [Thiocyclam oxalate] | > 90 | 
69 | CS/C(C)=N\OC(=O)N(C)SN(C)C(=O)O/N=C(\C)SC [Thiodicarb] | 39.7 | 
